Calls of active or inactive are those of the source. The rule behind the calls is not given here.
Columns and labels:
U-87 MG [1] = experiment: Induction of DNA damage in human U-87 MG cells incubated for 2.5 to 3 hrs by comet assay; format: functional, cell-based; conditions: U-87MG ATCC, dose 0.1-2 µM, time 2.5-3 hrs
[2] = Cytotoxicity against human LO2 assessed as cell viability incubated for 48 hrs by MTT assay; format: toxicity, cell-based, L02; conditions: LO2 cells
[3] = Selectivity ratio of IC50 for cytotoxicity against human LO2 assessed as cell viability to IC50 for antiproliferative activity against human U-87 MG assessed as cell viability; format: toxicity; conditions: LO2 cells versus U-87 MG cells, read-out: Ratio IC50
U-87 MG [4] = experiment: Inhibition of ERK1/2 phosphorylation in human U-87 MG cells at 0.05 uM incubated for 24 hrs by Western blot analysis; format: cell-based
U-87 MG [5] = experiment: Induction of cell cycle arrest in human U-87 MG cells assessed as accumulation of cells at S phase at 0.01 uM by propidium Iodide staining based flow cytometry analysis (reference value: 9.59%); format: functional, U-87MG ATCC
Focal adhesion kinase 1 [6] = target: T1, Focal adhesion kinase 1 (Homo sapiens, UniProt Q05397); experiment: Inhibition of FAK phosphorylation in human U-87 MG cells at 0.8 uM incubated for 24 hrs by Western blot analysis; format: cell-based
U-251 = experiment: Antiproliferative activity against human U-251 assessed as cell viability incubated for 48 hrs by MTT assay; format: functional, cell-based; conditions: U-251, 48 h
U-87 MG [7] = experiment: Induction of apoptosis in human U-87 MG cells assessed as late apoptotic cells at 2 uM measured upto 24 hrs by Annexin V-FITC/PI staining based flow cytometry analysis (reference value: 0.54%); format: functional, U-87MG ATCC
U-87 MG [8] = experiment: Antiproliferative activity against human U-87 MG assessed as inhibition of cell growth at 0.025 to 0.1 uM; format: functional, U-87MG ATCC; conditions: dose 0.025-0.1 µM
U-87 MG [9] = experiment: Induction of cell cycle arrest in human U-87 MG cells assessed as accumulation of cells at G0/G1 phase at 0.01 uM by propidium Iodide staining based flow cytometry analysis (reference value: 80.68%); format: functional, U-87MG ATCC
[10] = Toxicity in BALB/c mouse implanted with human U-87 MG cells assessed as body weight loss at 5 to 25 mg/kg, ip administered once daily for 15 days by H and E staining based analysis; format: organism-based; conditions: in vivo, 360 h, dose 5-25 mg/kg, time 15 day
U-87 MG [11] = experiment: Induction of apoptosis in human U-87 MG cells assessed as necrotic cells at 0.02 uM measured upto 24 hrs by Annexin V-FITC/PI staining based flow cytometry analysis (reference value: 0.62%); format: functional, U-87MG ATCC
U-87 MG [12] = experiment: Antitumor activity against human U-87 MG cells xenografted in BALB/c mouse assessed as inhibition of tumor growth at 5 mg/kg, ip administered once daily for 15 days; format: functional, U-87MG ATCC; conditions: 360 h, time 15 day, read-out: TGI
[13] = Toxicity in BALB/c mouse implanted with human U-87 MG cells assessed as mortality at 5 to 25 mg/kg, ip administered once daily for 15 days by H and E staining based analysis; format: organism-based; conditions: in vivo, 360 h, dose 5-25 mg/kg, time 15 day
[14] = Distribution coefficient, logD of compound in n-Octanol/water at pH 7.4; format: physicochemical
[15] = Toxicity in BALB/c mouse implanted with human U-87 MG cells assessed as tubular epithelial degeneration in renal cortex at 5 mg/kg, ip administered once daily for 15 days by H and E staining based analysis; format: organism-based; conditions: in vivo, 360 h, time 15 day
U-87 MG [16] = experiment: Inhibition of AKT phosphorylation in human U-87 MG cells at 0.8 uM incubated for 24 hrs by Western blot analysis; format: cell-based
U-87 MG [17] = experiment: Induction of apoptosis in human U-87 MG cells assessed as necrotic cells at 0.2 uM measured upto 24 hrs by Annexin V-FITC/PI staining based flow cytometry analysis (reference value: 0.62%); format: functional, U-87MG ATCC
U-87 MG [18] = experiment: Induction of apoptosis in human U-87 MG cells assessed as necrotic cells at 2 uM measured upto 24 hrs by Annexin V-FITC/PI staining based flow cytometry analysis (reference value: 0.62%); format: functional, U-87MG ATCC
[19] = Toxicity in BALB/c mouse implanted with human U-87 MG cells assessed as tolerability at 5 to 25 mg/kg, ip administered once daily for 15 days by H and E staining based analysis; format: organism-based; conditions: in vivo, 360 h, dose 5-25 mg/kg, time 15 day
U-87 MG [20] = experiment: Induction of cell cycle arrest in human U-87 MG cells assessed as accumulation of cells at G2M phase at 0.2 uM by propidium Iodide staining based flow cytometry analysis (reference value: 9.73%); format: functional, U-87MG ATCC
U-87 MG [21] = experiment: Antiproliferative activity against human U-87 MG assessed as inhibition of cell growth at 0.005 uM by clonogenic assay relative to control; format: functional, U-87MG ATCC
U-87 MG [22] = experiment: Induction of cell cycle arrest in human U-87 MG cells assessed as accumulation of cells at S phase at 0.2 uM by propidium Iodide staining based flow cytometry analysis (reference value: 9.59%); format: functional, U-87MG ATCC
U-87 MG [23] = experiment: Antitumor activity against human U-87 MG cells xenografted in BALB/c mouse assessed as inhibition of tumor growth at 25 mg/kg, ip administered once daily for 15 days; format: functional, U-87MG ATCC; conditions: 360 h, time 15 day, read-out: TGI
Focal adhesion kinase 1 [24] = target: T1, Focal adhesion kinase 1; experiment: Inhibition of FAK (unknown origin) at 50 nM relative to control
[25] = Cytotoxicity against human 2BS assessed as cell viability incubated for 48 hrs by MTT assay; format: toxicity, cell-based; conditions: 2BS cells
U-87 MG [26] = experiment: Induction of cell cycle arrest in human U-87 MG cells assessed as accumulation of cells at G2M phase at 0.02 uM by propidium Iodide staining based flow cytometry analysis (reference value: 9.73%); format: functional, U-87MG ATCC
U-87 MG [27] = experiment: Induction of apoptosis in human U-87 MG cells assessed as early apoptotic cells at 0.2 uM measured upto 24 hrs by Annexin V-FITC/PI staining based flow cytometry analysis (reference value: 0.45%); format: functional, U-87MG ATCC
[28] = Toxicity in BALB/c mouse implanted with human U-87 MG cells assessed as hypertrophy in myocardium at 5 mg/kg, ip administered once daily for 15 days by H and E staining based analysis; format: organism-based; conditions: in vivo, 360 h, time 15 day
Focal adhesion kinase 1 [29] = target: T1, Focal adhesion kinase 1; experiment: Inhibition of FAK phosphorylation in human U-87 MG cells at 0.05 uM incubated for 24 hrs by Western blot analysis; format: cell-based
U-87 MG [30] = experiment: Induction of cell cycle arrest in human U-87 MG cells assessed as accumulation of cells at […] at 0.01 uM by propidium Iodide staining based flow cytometry analysis (reference value: 1.67%); format: functional, U-87MG ATCC
U-87 MG [31] = experiment: Induction of apoptosis in human U-87 MG cells assessed as early apoptotic cells at 0.02 uM measured upto 24 hrs by Annexin V-FITC/PI staining based flow cytometry analysis (reference value: 0.45%); format: functional, U-87MG ATCC
[32] = Toxicity in BALB/c mouse implanted with human U-87 MG cells assessed as liver damage at 5 mg/kg, ip administered once daily for 15 days by H and E staining based analysis; format: organism-based; conditions: in vivo, 360 h, time 15 day
U-87 MG [33] = experiment: Induction of apoptosis in human U-87 MG cells assessed as […] in cleaved caspase-3 level at 0.05 to 0.8 uM incubated for 24 hrs by Western blot analysis; format: functional, cell-based; conditions: U-87MG ATCC, dose 0.05-0.8 µM
[34] = Selectivity ratio of IC50 for cytotoxicity against human LO2 assessed as cell viability to IC50 for antiproliferative activity against human U-251 assessed as cell viability; format: toxicity; conditions: LO2 cells versus U-251 cells, read-out: Ratio IC50

T1 sequence (Q05397 2-1052 limits assumed): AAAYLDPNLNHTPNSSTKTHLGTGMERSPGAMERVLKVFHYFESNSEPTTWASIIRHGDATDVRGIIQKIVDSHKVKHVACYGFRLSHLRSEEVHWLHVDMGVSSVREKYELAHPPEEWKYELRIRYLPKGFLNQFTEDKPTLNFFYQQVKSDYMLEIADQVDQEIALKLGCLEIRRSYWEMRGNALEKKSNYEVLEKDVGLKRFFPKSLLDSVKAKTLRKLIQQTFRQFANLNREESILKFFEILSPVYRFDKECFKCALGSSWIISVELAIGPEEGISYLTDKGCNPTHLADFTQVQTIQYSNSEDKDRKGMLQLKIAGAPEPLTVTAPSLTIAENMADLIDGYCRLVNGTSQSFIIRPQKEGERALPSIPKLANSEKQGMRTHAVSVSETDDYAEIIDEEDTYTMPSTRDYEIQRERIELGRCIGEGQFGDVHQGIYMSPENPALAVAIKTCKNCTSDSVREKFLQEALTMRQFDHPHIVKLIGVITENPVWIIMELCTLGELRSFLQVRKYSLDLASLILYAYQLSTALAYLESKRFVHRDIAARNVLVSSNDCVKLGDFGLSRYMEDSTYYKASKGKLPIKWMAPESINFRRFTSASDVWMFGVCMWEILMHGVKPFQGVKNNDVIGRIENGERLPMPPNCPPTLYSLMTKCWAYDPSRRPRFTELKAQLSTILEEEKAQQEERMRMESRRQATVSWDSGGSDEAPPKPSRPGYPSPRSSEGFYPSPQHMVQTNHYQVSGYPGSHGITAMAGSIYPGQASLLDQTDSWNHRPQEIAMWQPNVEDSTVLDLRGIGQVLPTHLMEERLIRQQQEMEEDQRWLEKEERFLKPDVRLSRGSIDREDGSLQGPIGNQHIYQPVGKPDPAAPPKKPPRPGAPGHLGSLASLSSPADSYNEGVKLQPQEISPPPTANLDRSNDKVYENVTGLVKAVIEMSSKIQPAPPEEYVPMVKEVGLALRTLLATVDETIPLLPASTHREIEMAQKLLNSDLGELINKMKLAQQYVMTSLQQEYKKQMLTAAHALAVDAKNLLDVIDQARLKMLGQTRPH

CNC(=O)c1ccccc1Nc1nc(Nc2ccc(N3CCN(CCOC(=O)CCCc4ccc(N(CCCl)CCCl)cc4)CC3)cc2)ncc1C(F)(F)F
Activity (U-87 MG [1]): Dose-dependent-effect; Ability To Induce Dna Damage Was Stronger Than That Of Tmx And Chlorambucil
IC50 at 48 h [2]: 586 nM
selectivity ratio [3]: > 40
inhibition (U-87 MG [4]): Active
Activity (U-87 MG [5]): 13.83%
inhibition (Focal adhesion kinase 1 [6]): 100%
IC50 (U-251): 20 nM
Activity (U-87 MG [7]): 7.19%
inhibition (INH) (U-87 MG [8]): 100%
Activity (U-87 MG [9]): 69.64%
Activity [10]: Non-toxic
Activity (U-87 MG [11]): 5.5%
inhibition in vivo at 5 mg/kg (U-87 MG [12]): 63.7%
Activity [13]: Non-toxic
logD [14]: 6.06
Activity [15]: Non-toxic
inhibition (U-87 MG [16]): 100%
Activity (U-87 MG [17]): 2.31%
Activity (U-87 MG [18]): 2.16%
Activity [19]: Non-toxic
Activity (U-87 MG [20]): 43.61%
inhibition at 0.005 µM (U-87 MG [21]): 73%
Activity (U-87 MG [22]): 11.41%
inhibition in vivo at 25 mg/kg (U-87 MG [23]): 82.5%
inhibition (Focal adhesion kinase 1 [24]): 100%
IC50 at 48 h [25]: 11100 nM
Activity (U-87 MG [26]): 20.9%
Activity (U-87 MG [27]): 28.3%
Activity [28]: Non-toxic
inhibition (Focal adhesion kinase 1 [29]): Active
Activity (U-87 MG [30]): 1.77%
Activity (U-87 MG [31]): 25.9%
Activity [32]: Non-toxic
Activity (U-87 MG [33]): Active
selectivity ratio [34]: > 40

Source: ChEMBL document CHEMBL6153079, “Discovery of noncovalent diaminopyrimidine-based Inhibitors for glioblastoma via a dual FAK/DNA targeting strategy” (Eur J Med Chem, 2025)
